Source: patent US20040097596A1 (priority 2000, published 2004)
Where two headings read alike, the source gives them in different places.

Legend:
Oidium lycopersici = assay: Powdery mildew assay on detached tomato leaflets, % disease control, observed vs expected (Colby); assay type: in vivo
Phytophthora infestans = assay type: in vivo; details: for E, Expected % disease control / O, Observed % disease control / O-E: A76 potato
[1] = tomato 980 Le/MM/Cf9-8, 0.1 ppm, Feb. 16, 2001
[2] = tomato 980 Le/MM/Cf9-8, 0.1 ppm, Feb. 17, 2001
[3] = tomato 980 Le/MM/Cf9-8, 0.1 ppm, Feb. 18, 2001
[4] = tomato 980 Le/MM/Cf9-8, 0.1 ppm, Feb. 19, 2001
[5] = tomato 980 Le/MM/Cf9-8, 0.1 ppm, Feb. 20, 2001
[6] = tomato 980 Le/MM/Cf9-44, 0.1 ppm, Feb. 16, 2001
[7] = tomato 980 Le/MM/Cf9-44, 0.1 ppm, Feb. 17, 2001
[8] = tomato 980 Le/MM/Cf9-44, 0.1 ppm, Feb. 18, 2001
[9] = tomato 980 Le/MM/Cf9-44, 0.1 ppm, Feb. 19, 2001
[10] = tomato 980 Le/MM/Cf9-44, 0.1 ppm, Feb. 20, 2001
[11] = tomato 981 Le/MM/Cf9-22, 0.1 ppm, Feb. 16, 2001
[12] = tomato 981 Le/MM/Cf9-22, 0.1 ppm, Feb. 17, 2001
[13] = tomato 981 Le/MM/Cf9-22, 0.1 ppm, Feb. 18, 2001
[14] = tomato 981 Le/MM/Cf9-22, 0.1 ppm, Feb. 19, 2001
[15] = tomato 981 Le/MM/Cf9-22, 0.1 ppm, Feb. 20, 2001
[16] = 0.03 ppm, Jan. 25, 2001, FB 2001/3001
[17] = 0.03 ppm, Jan. 26, 2001, FB 2001/3001
[18] = 0.03 ppm, Jan. 27, 2001, FB 2001/3001
[19] = 0.03 ppm, Jan. 28, 2001, FB 2001/3001
[20] = 0.03 ppm, Jan. 29, 2001, FB 2001/3001
[21] = 0.1 ppm, Jan. 25, 2001, FB 2001/3001
[22] = 0.1 ppm, Jan. 26, 2001, FB 2001/3001
[23] = 0.1 ppm, Jan. 27, 2001, FB 2001/3001
[24] = 0.1 ppm, Jan. 28, 2001, FB 2001/3001
[25] = 0.1 ppm, Jan. 29, 2001, FB 2001/3001
[26] = 0.3 ppm, Jan. 25, 2001, FB 2001/3001
[27] = 0.3 ppm, Jan. 26, 2001, FB 2001/3001
[28] = 0.3 ppm, Jan. 27, 2001, FB 2001/3001
[29] = 0.3 ppm, Jan. 28, 2001, FB 2001/3001
[30] = 0.3 ppm, Jan. 29, 2001, FB 2001/3001

CO/C=C(/C(=O)OC)c1ccccc1Oc1cc(Oc2ccccc2C#N)ncn1 [Azoxystrobin, azoxystrobin]
performance in combination with the transgenic line (indicative of synergy) (Oidium lycopersici; all three transgenic tomato lines, observed vs expected disease control): better than expected | E, expected disease control (Oidium lycopersici; [1]): 97.5% | O, observed disease control (Oidium lycopersici; [1]): 93.01% | O-E (Oidium lycopersici; [1]): −4.49 | E, expected disease control (Oidium lycopersici; [2]): 92.53% | O, observed disease control (Oidium lycopersici; [2]): 89.64% | O-E (Oidium lycopersici; [2]): −2.89 | E, expected disease control (Oidium lycopersici; [3]): 79.68% | O, observed disease control (Oidium lycopersici; [3]): 86.84% | O-E (Oidium lycopersici; [3]): 7.16 | E, expected disease control (Oidium lycopersici; [4]): 74.81% | O, observed disease control (Oidium lycopersici; [4]): 87.5% | O-E (Oidium lycopersici; [4]): 12.69 | E, expected disease control (Oidium lycopersici; [5]): 67.47% | O, observed disease control (Oidium lycopersici; [5]): 81.11% | O-E (Oidium lycopersici; [5]): 13.64 | E, expected disease control (Oidium lycopersici; [6]): 93.9% | O, observed disease control (Oidium lycopersici; [6]): 100% | O-E (Oidium lycopersici; [6]): 6.1 | E, expected disease control (Oidium lycopersici; [7]): 84.21% | O, observed disease control (Oidium lycopersici; [7]): 97.12% | O-E (Oidium lycopersici; [7]): 12.91 | E, expected disease control (Oidium lycopersici; [8]): 67.22% | O, observed disease control (Oidium lycopersici; [8]): 89.72% | O-E (Oidium lycopersici; [8]): 22.5 | E, expected disease control (Oidium lycopersici; [9]): 61.62% | O, observed disease control (Oidium lycopersici; [9]): 86.36% | O-E (Oidium lycopersici; [9]): 24.74 | E, expected disease control (Oidium lycopersici; [10]): 52.54% | O, observed disease control (Oidium lycopersici; [10]): 79.57% | O-E (Oidium lycopersici; [10]): 27.03 | E, expected disease control (Oidium lycopersici; [11]): 93.41% | O, observed disease control (Oidium lycopersici; [11]): 96.01% | O-E (Oidium lycopersici; [11]): 2.6 | E, expected disease control (Oidium lycopersici; [12]): 81.74% | O, observed disease control (Oidium lycopersici; [12]): 96.55% | O-E (Oidium lycopersici; [12]): 14.81 | E, expected disease control (Oidium lycopersici; [13]): 69.49% | O, observed disease control (Oidium lycopersici; [13]): 89.47% | O-E (Oidium lycopersici; [13]): 19.98 | E, expected disease control (Oidium lycopersici; [14]): 63.9% | O, observed disease control (Oidium lycopersici; [14]): 90.91% | O-E (Oidium lycopersici; [14]): 27.01 | E, expected disease control (Oidium lycopersici; [15]): 56.11% | O, observed disease control (Oidium lycopersici; [15]): 87.84% | O-E (Oidium lycopersici; [15]): 31.73 | E, Expected % disease control (Phytophthora infestans; [16]): 85.1% | O, Observed % disease control (Phytophthora infestans; [16]): 86.1% | O-E (Phytophthora infestans; [16]): 1.0 | E, Expected % disease control (Phytophthora infestans; [17]): 91.0% | O, Observed % disease control (Phytophthora infestans; [17]): 91.0% | O-E (Phytophthora infestans; [17]): 0.0 | E, Expected % disease control (Phytophthora infestans; [18]): 84.2% | O, Observed % disease control (Phytophthora infestans; [18]): 89.6% | O-E (Phytophthora infestans; [18]): 5.4 | E, Expected % disease control (Phytophthora infestans; [19]): 56.4% | O, Observed % disease control (Phytophthora infestans; [19]): 84.9% | O-E (Phytophthora infestans; [19]): 28.4 | E, Expected % disease control (Phytophthora infestans; [20]): 38.7% | O, Observed % disease control (Phytophthora infestans; [20]): 63.8% | O-E (Phytophthora infestans; [20]): 25.1 | E, Expected % disease control (Phytophthora infestans; [21]): 91.8% | O, Observed % disease control (Phytophthora infestans; [21]): 91.7% | O-E (Phytophthora infestans; [21]): −0.1 | E, Expected % disease control (Phytophthora infestans; [22]): 95.1% | O, Observed % disease control (Phytophthora infestans; [22]): 98.6% | O-E (Phytophthora infestans; [22]): −1.6 | E, Expected % disease control (Phytophthora infestans; [23]): 93.1% | O, Observed % disease control (Phytophthora infestans; [23]): 91.7% | O-E (Phytophthora infestans; [23]): −1.4 | E, Expected % disease control (Phytophthora infestans; [24]): 76.1% | O, Observed % disease control (Phytophthora infestans; [24]): 89.9% | O-E (Phytophthora infestans; [24]): 13.9 | E, Expected % disease control (Phytophthora infestans; [25]): 51.1% | O, Observed % disease control (Phytophthora infestans; [25]): 86.9% | O-E (Phytophthora infestans; [25]): 35.8 | E, Expected % disease control (Phytophthora infestans; [26]): 95.5% | O, Observed % disease control (Phytophthora infestans; [26]): 97.2% | O-E (Phytophthora infestans; [26]): 1.7 | E, Expected % disease control (Phytophthora infestans; [27]): 97.2% | O, Observed % disease control (Phytophthora infestans; [27]): 98.7% | O-E (Phytophthora infestans; [27]): 1.5 | E, Expected % disease control (Phytophthora infestans; [28]): 95.6% | O, Observed % disease control (Phytophthora infestans; [28]): 97.9% | O-E (Phytophthora infestans; [28]): 2.4 | E, Expected % disease control (Phytophthora infestans; [29]): 87.1% | O, Observed % disease control (Phytophthora infestans; [29]): 98.0% | O-E (Phytophthora infestans; [29]): 10.9 | E, Expected % disease control (Phytophthora infestans; [30]): 74.6% | O, Observed % disease control (Phytophthora infestans; [30]): 97.0% | O-E (Phytophthora infestans; [30]): 22.4 | performance in combination with A76 (indicative of synergy) (Phytophthora infestans; in combination with A76 potato, observed vs expected disease control): better than expected
